# Results taken from ChEMBL document CHEMBL5370585, “Exploration and Biological Evaluation of 1,3-Diamino-7H-pyrrol[3,2-f]quinazoline Derivatives as Dihydrofolate Reductase Inhibitors” (J Med Chem, 2023).
# pIC50: −log10 of the molar value. Calls of active or inactive are those of the source. No cut-off for these calls is given here.
# Experiments:
# [1] = AUC (0 to infinity) in ICR mouse at 10 mg/kg, ip measured after 5 to 24 hrs post administration by LC-MS/MS analysis; format: ADME, organism-based; parameters: time upper 24 hrs, dose 10 mg/kg, time lower 5 hrs, route ip; details: in vivo
# [2] = Stability in mouse plasma assessed as parent compound remaining at 5 ug/ml measured after 30 mins by LC-MS/MS analysis; format: ADME, cell-free; details: at 5 µg/mL, read-out: Stability
# [3] = test system: Staphylococcus aureus; assay: Antibacterial activity against Staphylococcus aureus ATCC 29213 incubated for 16 to 18 hrs by CLSI based broth dilution method; format: functional; details: time 16-18 hrs
# [4] = test system: Escherichia coli; assay: Antibacterial activity against Escherichia coli ATCC 25922 assessed as inhibition of bacterial growth at upto 8 times MIC measured upto 28 hrs by time kill curve assay; format: functional, organism-based
# [5] = Stability in mouse plasma assessed as parent compound remaining at 1 ug/ml measured after 45 mins by LC-MS/MS analysis; format: ADME, cell-free; details: at 1 µg/mL, read-out: Stability
# [6] = test system: HCT-116; assay: Cytotoxicity against human HCT-116 cells measured after 72 hrs by MTT assay; format: functional, cell-based; details: HCT-116, 72 h
# [7] = Stability in mouse plasma assessed as parent compound remaining at 1 ug/ml measured after 1440 mins by LC-MS/MS analysis; format: ADME, cell-free; details: at 1 µg/mL, read-out: Stability
# [8] = test system: Enterococcus faecalis; assay: Antibacterial activity against Enterococcus faecalis ATCC 29212 incubated for 16 to 18 hrs by CLSI based broth dilution method; format: functional; details: time 16-18 hrs
# [9] = test system: Staphylococcus aureus; assay: Antibacterial activity against Methicillin-resistant Staphylococcus aureus ATCC 43300 infected in ICR mouse thigh infection model assessed as survival rate at 7.5 mg/kg, ip measured after 24 hrs post-treatment relative to control; format: functional
# [10] = test system: Staphylococcus aureus; assay: Antibacterial activity against Methicillin-resistant Staphylococcus aureus ATCC 43300 infected in ICR mouse thigh infection model assessed as survival rate at 15 mg/kg, ip measured after 24 hrs post-treatment relative to control; format: functional
# [11] = test system: Staphylococcus aureus; assay: Drug resistance against methicillin-resistant Staphylococcus aureus ATCC 43300 assessed as increase in MIC measured after 10 passaging for 24 hrs; format: functional, organism-based
# [12] = Stability in mouse plasma assessed as parent compound remaining at 5 ug/ml measured after 45 mins by LC-MS/MS analysis; format: ADME, cell-free; details: at 5 µg/mL, read-out: Stability
# [13] = test system: Staphylococcus aureus; assay: Antibacterial activity against Staphylococcus aureus ATCC 29213 incubated for 16 to 18 hrs in presence of human plasma by CLSI based broth dilution method; format: functional; details: time 16-18 hrs
# [14] = Stability in mouse plasma assessed as parent compound remaining at 1 ug/ml measured after 120 mins by LC-MS/MS analysis; format: ADME, cell-free; details: at 1 µg/mL, read-out: Stability
# [15] = Stability in mouse plasma assessed as parent compound remaining at 1 ug/ml measured after 60 mins by LC-MS/MS analysis; format: ADME, cell-free; details: at 1 µg/mL, read-out: Stability
# [16] = Stability in mouse plasma assessed as parent compound remaining at 5 ug/ml measured after 240 mins by LC-MS/MS analysis; format: ADME, cell-free; details: at 5 µg/mL, read-out: Stability
# [17] = test system: Staphylococcus aureus; assay: Antibacterial activity against methicillin-resistant Staphylococcus aureus ATCC 43300 assessed as inhibition of bacterial growth at upto 8 times MIC measured upto 28 hrs by time kill curve assay; format: functional, organism-based
# [18] = test system: Escherichia coli; assay: Antibacterial activity against Escherichia coli ATCC 25922 incubated for 16 to 18 hrs by CLSI based broth dilution method; format: functional; details: time 16-18 hrs
# [19] = Stability in mouse plasma assessed as parent compound remaining at 1 ug/ml measured after 10 mins by LC-MS/MS analysis; format: ADME, cell-free; details: at 1 µg/mL, read-out: Stability
# [20] = test system: Escherichia coli; assay: Antibacterial activity against Escherichia coli ATCC 25922 incubated for 16 to 18 hrs in absence of human plasma by CLSI based broth dilution method; format: functional; details: time 16-18 hrs
# [21] = Metabolic stability in mouse liver microsomes assessed as hepatic clearance at 1 uM measured upto 60 mins in presence of NADPH by LC-MS/MS analysis; format: ADME, Microsome; details: 1 h
# [22] = test system: MCF7; assay: Cytotoxicity against human MCF7 cells measured after 72 hrs by MTT assay; format: functional, cell-based; details: MCF7, 72 h
# [23] = Toxicity in ICR mouse assessed as median lethal dose administered as single IP dose measured upto 8 days; details: in vivo, time < 8 day
# [24] = Stability in mouse plasma assessed as parent compound remaining at 1 ug/ml measured after 30 mins by LC-MS/MS analysis; format: ADME, cell-free; details: at 1 µg/mL, read-out: Stability
# [25] = test system: Escherichia coli; assay: Antibacterial activity against Escherichia coli ATCC 25922 incubated for 16 to 18 hrs in presence of human plasma by CLSI based broth dilution method; format: functional; details: time 16-18 hrs
# [26] = Stability in mouse plasma assessed as parent compound remaining at 5 ug/ml measured after 10 mins by LC-MS/MS analysis; format: ADME, cell-free; details: at 5 µg/mL, read-out: Stability
# [27] = Stability in mouse plasma assessed as parent compound remaining at 1 ug/ml measured after 20 mins by LC-MS/MS analysis; format: ADME, cell-free; details: at 1 µg/mL, read-out: Stability
# [28] = Metabolic stability in mouse liver microsomes assessed as half life at 1 uM measured upto 60 mins in presence of NADPH by LC-MS/MS analysis; format: ADME, Microsome
# [29] = test system: Staphylococcus aureus; assay: Antibacterial activity against methicillin-resistant Staphylococcus aureus ATCC 43300 incubated for 16 to 18 hrs in presence of human plasma by CLSI based broth dilution method; format: functional; details: time 16-18 hrs
# [30] = Stability in mouse plasma assessed as parent compound remaining at 5 ug/ml measured after 20 mins by LC-MS/MS analysis; format: ADME, cell-free; details: at 5 µg/mL, read-out: Stability
# [31] = Stability in mouse plasma assessed as parent compound remaining at 1 ug/ml measured after 240 mins by LC-MS/MS analysis; format: ADME, cell-free; details: at 1 µg/mL, read-out: Stability
# [32] = test system: Staphylococcus aureus; assay: Antibacterial activity against methicillin-resistant Staphylococcus aureus ATCC 43300 incubated for 16 to 18 hrs by CLSI based broth dilution method; format: functional; details: time 16-18 hrs
# [33] = test system: Staphylococcus aureus; assay: Antibacterial activity against methicillin-resistant Staphylococcus aureus ATCC 43300 incubated for 16 to 18 hrs in absence of human plasma by CLSI based broth dilution method; format: functional; details: time 16-18 hrs
# [34] = Metabolic stability in mouse liver microsomes assessed as intrinsic clearance at 1 uM measured upto 60 mins in presence of NADPH by LC-MS/MS analysis; format: ADME, Microsome; details: read-out: CLH
# [35] = AUC (0 to t) in ICR mouse at 10 mg/kg, ip measured after 5 to 24 hrs post administration by LC-MS/MS analysis; format: ADME, organism-based; parameters: time 5-24 hrs, dose 10 mg/kg, route ip; details: in vivo
# [36] = Half life in ICR mouse at 10 mg/kg, ip measured after 5 to 24 hrs post administration by LC-MS/MS analysis; format: ADME, organism-based; details: in vivo, time 5-24 hrs
# [37] = Stability in mouse plasma assessed as parent compound remaining at 5 ug/ml measured after 1440 mins by LC-MS/MS analysis; format: ADME, cell-free; details: at 5 µg/mL, read-out: Stability
# [38] = Stability in mouse plasma assessed as parent compound remaining at 5 ug/ml measured after 120 mins by LC-MS/MS analysis; format: ADME, cell-free; details: at 5 µg/mL, read-out: Stability
# [39] = test system: Acinetobacter baumannii; assay: Antibacterial activity against Acinetobacter baumannii ATCC 19606 incubated for 16 to 18 hrs by CLSI based broth dilution method; format: functional; details: time 16-18 hrs
# [40] = test system: HGC-27; assay: Cytotoxicity against human HGC-27 cells measured after 72 hrs by MTT assay; format: functional, cell-based; details: HGC-27, 72 h
# [41] = test system: Staphylococcus aureus; assay: Antibacterial activity against Staphylococcus aureus ATCC 29213 incubated for 16 to 18 hrs in absence of human plasma by CLSI based broth dilution method; format: functional; details: time 16-18 hrs
# [42] = test system: Staphylococcus epidermidis; assay: Antibacterial activity against Staphylococcus epidermidis ATCC 12228 incubated for 16 to 18 hrs by CLSI based broth dilution method; format: functional; details: time 16-18 hrs
# [43] = Stability in mouse plasma assessed as parent compound remaining at 5 ug/ml measured after 60 mins by LC-MS/MS analysis; format: ADME, cell-free; details: at 5 µg/mL, read-out: Stability
# [44] = test system: Staphylococcus aureus; assay: Antibacterial activity against Methicillin-resistant Staphylococcus aureus ATCC 43300 infected in ip dosed ICR mouse thigh infection model assessed as reduction in bacterial growth measured after 24 hrs post-treatment; format: functional, organism-based; details: dose lower 7.5 mg/kg, dose upper […]
# [45] = Toxicity in ip dosed ICR mouse assessed as animal death at high dose measured upto 8 days; format: organism-based; details: in vivo, 192 h, time < 8 day
# [46] = test system: HepG2; assay: Cytotoxicity against human HepG2 cells measured after 72 hrs by MTT assay; format: functional, cell-based; details: HepG2, 72 h
compound,measurement,setting,value
Nc1nc(N)c2c(ccc3c2ccn3Cc2ccc3scnc3c2)n1,AUC,[1],367.6 ng·h/mL
same,"remaining at 0.5 h, 5 ug/ml",[2],95.8%
same,MIC,[3],0.125 µg/mL
same,Activity,[4],Active
same,"remaining at 0.75 h, 1 ug/ml",[5],93.1%
same,pIC50,[6],8.30
same,"remaining at 24 h, 1 ug/ml",[7],92.3%
same,MIC,[8],0.03 µg/mL
same,survival at 7.5 mg/kg,[9],50%
same,survival at 15 mg/kg,[10],66%
same,Activity,[11],Active
same,"remaining at 0.75 h, 5 ug/ml",[12],95.2%
same,MIC,[13],0.5 µg/mL
same,"remaining at 2 h, 1 ug/ml",[14],92.5%
same,"remaining at 1 h, 1 ug/ml",[15],92.4%
same,"remaining at 4 h, 5 ug/ml",[16],95.2%
same,Activity,[17],Active
same,MIC,[18],0.06 µg/mL
same,"remaining at 10 min, 1 ug/ml",[19],96.2%
same,MIC,[20],0.06 µg/mL
same,CLH,[21],74.9 mL/min/kg
same,pIC50,[22],6.24
same,LD50 at 192 h,[23],283 mg/kg
same,"remaining at 0.5 h, 1 ug/ml",[24],93.8%
same,MIC,[25],0.125 µg/mL
same,"remaining at 10 min, 5 ug/ml",[26],96.7%
same,"remaining at 20 min, 1 ug/ml",[27],94.7%
same,half-life at 1 µM,[28],0.203 h
same,MIC,[29],0.5 µg/mL
same,"remaining at 20 min, 5 ug/ml",[30],96%
same,"remaining at 4 h, 1 ug/ml",[31],92.6%
same,MIC,[32],0.016 µg/mL
same,MIC,[33],0.016 µg/mL
same,microsomal CLint at 1 µM,[34],114 µL/min/mg
same,AUCt,[35],2280.12 ng·h/mL
same,half-life,[36],2.82 h
same,"remaining at 24 h, 5 ug/ml",[37],95.5%
same,"remaining at 2 h, 5 ug/ml",[38],95.5%
same,MIC,[39],1 µg/mL
same,pIC50,[40],9.00
same,MIC,[41],0.03 µg/mL
same,MIC,[42],≤ 0.004 µg/mL
same,"remaining at 1 h, 5 ug/ml",[43],95.4%
same,Activity,[44],Active
same,Activity,[45],Toxic
same,pIC50,[46],6.92
